Among the data in ChEMBL document CHEMBL3758163, “Extended structure-activity study of thienopyrimidine-based EGFR inhibitors with evaluation of drug-like properties” (Eur J Med Chem, 2016) are inhibition values, retold here.

The target in assay [1] is Serine/threonine-protein kinase PLK1 (Homo sapiens) (UniProt P53350). As to the kind of experiment: Inhibition of PLK1 (unknown origin) at 500 nM.
Assay [2] concerns the target Serine/threonine-protein kinase B-raf (Homo sapiens) (UniProt P15056). Nature of the assay: Inhibition of BRAF (unknown origin) at 500 nM.
Assay [3] addresses T1, Serine/threonine-protein kinase Chk1 (Homo sapiens) (UniProt O14757).
T1 sequence (whole entry): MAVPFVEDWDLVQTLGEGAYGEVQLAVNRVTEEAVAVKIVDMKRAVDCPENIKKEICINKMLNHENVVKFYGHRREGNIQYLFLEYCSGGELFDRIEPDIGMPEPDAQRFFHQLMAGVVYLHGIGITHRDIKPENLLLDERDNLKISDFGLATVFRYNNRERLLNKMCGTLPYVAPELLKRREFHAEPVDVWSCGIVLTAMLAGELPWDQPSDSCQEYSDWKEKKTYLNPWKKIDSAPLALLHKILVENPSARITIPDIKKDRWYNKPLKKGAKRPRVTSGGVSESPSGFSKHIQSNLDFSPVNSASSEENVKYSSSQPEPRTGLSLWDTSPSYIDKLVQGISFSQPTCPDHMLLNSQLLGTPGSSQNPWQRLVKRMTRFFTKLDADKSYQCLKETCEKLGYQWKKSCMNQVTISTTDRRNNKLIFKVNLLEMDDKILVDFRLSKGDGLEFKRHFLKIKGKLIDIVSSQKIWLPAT
Nature of the assay: Inhibition of CHEK1 (unknown origin) at 500 nM.

The target in assay [4] is Dual specificity mitogen-activated protein kinase kinase 1 (Homo sapiens) (UniProt Q02750). Nature of the assay: Inhibition of MAP2K1 (unknown origin) at 500 nM.
Assay [5] concerns the target Tyrosine-protein kinase Lyn (Homo sapiens) (UniProt P07948). As to the kind of experiment: Inhibition of LYN A (unknown origin) at 500 nM.
The target of assay [6] is Insulin-like growth factor 1 receptor (Homo sapiens) (UniProt P08069). As to the kind of experiment: Inhibition of IGF1R (unknown origin) at 500 nM.
Insulin-like growth factor 1 receptor (Homo sapiens), sequence (P08069 31-736 limits assumed): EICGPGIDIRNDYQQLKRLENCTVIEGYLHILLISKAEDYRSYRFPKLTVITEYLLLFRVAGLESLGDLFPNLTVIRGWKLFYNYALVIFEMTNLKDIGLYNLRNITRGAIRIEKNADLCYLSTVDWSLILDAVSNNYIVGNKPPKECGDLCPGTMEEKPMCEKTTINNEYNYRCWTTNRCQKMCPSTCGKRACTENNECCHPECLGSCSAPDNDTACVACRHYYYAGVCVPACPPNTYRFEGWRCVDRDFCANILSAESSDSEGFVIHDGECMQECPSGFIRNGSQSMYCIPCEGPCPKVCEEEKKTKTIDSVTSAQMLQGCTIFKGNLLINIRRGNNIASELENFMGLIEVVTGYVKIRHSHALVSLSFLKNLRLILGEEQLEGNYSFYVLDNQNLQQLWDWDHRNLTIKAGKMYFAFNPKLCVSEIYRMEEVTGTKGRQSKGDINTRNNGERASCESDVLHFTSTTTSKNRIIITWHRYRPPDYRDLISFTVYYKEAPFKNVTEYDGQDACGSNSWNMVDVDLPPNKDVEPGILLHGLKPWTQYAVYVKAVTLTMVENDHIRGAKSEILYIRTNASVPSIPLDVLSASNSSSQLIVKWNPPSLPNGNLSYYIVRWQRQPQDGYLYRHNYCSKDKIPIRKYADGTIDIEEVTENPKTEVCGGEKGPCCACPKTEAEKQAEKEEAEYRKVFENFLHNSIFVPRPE
Insulin-like growth factor 1 receptor (Homo sapiens), sequence (P08069 741-1367 limits assumed): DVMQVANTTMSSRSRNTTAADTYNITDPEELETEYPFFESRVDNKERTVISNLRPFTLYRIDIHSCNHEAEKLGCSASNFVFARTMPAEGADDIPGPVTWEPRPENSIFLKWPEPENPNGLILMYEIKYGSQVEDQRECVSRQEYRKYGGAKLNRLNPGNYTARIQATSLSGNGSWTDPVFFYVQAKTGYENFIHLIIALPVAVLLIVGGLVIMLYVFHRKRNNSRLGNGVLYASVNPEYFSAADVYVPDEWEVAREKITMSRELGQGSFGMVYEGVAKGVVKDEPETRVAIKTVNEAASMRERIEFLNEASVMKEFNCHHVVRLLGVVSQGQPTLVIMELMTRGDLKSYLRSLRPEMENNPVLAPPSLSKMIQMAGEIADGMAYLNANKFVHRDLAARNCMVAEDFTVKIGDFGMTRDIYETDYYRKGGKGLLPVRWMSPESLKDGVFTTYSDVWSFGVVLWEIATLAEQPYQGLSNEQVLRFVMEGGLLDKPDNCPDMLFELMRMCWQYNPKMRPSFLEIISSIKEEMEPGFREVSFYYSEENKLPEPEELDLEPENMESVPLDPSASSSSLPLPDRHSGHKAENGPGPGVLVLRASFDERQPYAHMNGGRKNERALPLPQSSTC
Assay [7] concerns the target Tyrosine-protein kinase Fyn (Homo sapiens) (UniProt P06241). Nature of the assay: Inhibition of FYN (unknown origin) at 500 nM.
Assay [8] deals with T2, Serine/threonine-protein kinase Nek1 (Homo sapiens) (UniProt Q96PY6).
T2 sequence (whole entry): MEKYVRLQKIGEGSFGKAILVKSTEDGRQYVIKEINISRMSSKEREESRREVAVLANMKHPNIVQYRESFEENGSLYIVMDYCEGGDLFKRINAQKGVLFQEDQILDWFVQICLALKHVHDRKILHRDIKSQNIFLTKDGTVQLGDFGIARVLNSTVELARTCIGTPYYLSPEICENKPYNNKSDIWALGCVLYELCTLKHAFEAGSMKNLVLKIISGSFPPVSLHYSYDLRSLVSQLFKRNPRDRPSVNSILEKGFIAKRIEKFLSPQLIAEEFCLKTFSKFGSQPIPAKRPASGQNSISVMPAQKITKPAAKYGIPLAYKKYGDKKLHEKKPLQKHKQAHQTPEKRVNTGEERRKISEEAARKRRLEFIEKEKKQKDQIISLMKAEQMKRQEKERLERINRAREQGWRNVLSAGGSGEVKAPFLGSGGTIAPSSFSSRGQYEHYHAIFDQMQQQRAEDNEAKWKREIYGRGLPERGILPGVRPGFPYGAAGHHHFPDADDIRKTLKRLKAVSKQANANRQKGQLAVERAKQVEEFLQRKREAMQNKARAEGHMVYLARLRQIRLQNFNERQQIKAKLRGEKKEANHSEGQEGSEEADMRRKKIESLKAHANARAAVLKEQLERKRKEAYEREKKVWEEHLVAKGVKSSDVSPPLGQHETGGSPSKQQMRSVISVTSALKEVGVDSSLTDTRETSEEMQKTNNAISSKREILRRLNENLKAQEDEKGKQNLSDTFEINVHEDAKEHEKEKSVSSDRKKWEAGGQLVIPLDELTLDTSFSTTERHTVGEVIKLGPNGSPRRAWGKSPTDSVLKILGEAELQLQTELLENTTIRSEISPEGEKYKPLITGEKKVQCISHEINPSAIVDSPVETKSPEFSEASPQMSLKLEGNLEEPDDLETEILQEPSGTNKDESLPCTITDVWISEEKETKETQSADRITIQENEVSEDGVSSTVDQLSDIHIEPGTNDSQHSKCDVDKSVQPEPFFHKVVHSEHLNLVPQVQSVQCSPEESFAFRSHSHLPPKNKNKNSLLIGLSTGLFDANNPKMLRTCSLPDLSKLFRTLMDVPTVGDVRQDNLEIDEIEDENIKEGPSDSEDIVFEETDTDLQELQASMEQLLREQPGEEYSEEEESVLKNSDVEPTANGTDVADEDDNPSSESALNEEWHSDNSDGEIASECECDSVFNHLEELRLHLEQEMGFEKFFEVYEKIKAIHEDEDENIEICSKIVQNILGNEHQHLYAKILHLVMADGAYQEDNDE
As to the kind of experiment: Inhibition of NEK1 (unknown origin) at 500 nM.

For assay [9], the target named is Vascular endothelial growth factor receptor 2 (Homo sapiens) (UniProt P35968). Nature of the assay: Inhibition of KDR (unknown origin) at 500 nM.
Assay [10] addresses Vascular endothelial growth factor receptor 3 (Homo sapiens) (UniProt P35916). Nature of the assay: Inhibition of FLT4 (unknown origin) at 500 nM.
In assay [11] the target is Tyrosine-protein kinase HCK (Homo sapiens) (UniProt P08631). As to the kind of experiment: Inhibition of HCK (unknown origin) at 500 nM.
Tyrosine-protein kinase HCK (Homo sapiens), sequence (P08631 2-526 limits assumed): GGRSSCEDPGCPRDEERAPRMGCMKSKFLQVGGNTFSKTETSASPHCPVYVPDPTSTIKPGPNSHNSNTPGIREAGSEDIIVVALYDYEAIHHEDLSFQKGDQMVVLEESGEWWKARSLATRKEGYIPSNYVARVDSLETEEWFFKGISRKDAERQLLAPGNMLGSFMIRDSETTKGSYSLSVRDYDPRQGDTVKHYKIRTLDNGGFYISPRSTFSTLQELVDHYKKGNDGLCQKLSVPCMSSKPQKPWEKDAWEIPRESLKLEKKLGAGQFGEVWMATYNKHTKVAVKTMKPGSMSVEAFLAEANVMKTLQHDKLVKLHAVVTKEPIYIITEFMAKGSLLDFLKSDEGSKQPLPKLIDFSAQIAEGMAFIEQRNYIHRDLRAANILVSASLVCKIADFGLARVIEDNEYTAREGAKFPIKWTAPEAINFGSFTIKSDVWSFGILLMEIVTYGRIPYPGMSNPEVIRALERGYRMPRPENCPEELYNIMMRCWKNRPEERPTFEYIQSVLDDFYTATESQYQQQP
The target in assay [12] is Fibroblast growth factor receptor 1 (Homo sapiens) (UniProt P11362). As to the kind of experiment: Inhibition of FGFR1 (unknown origin) at 500 nM.
Fibroblast growth factor receptor 1 (Homo sapiens), sequence (P11362 22-822 limits assumed): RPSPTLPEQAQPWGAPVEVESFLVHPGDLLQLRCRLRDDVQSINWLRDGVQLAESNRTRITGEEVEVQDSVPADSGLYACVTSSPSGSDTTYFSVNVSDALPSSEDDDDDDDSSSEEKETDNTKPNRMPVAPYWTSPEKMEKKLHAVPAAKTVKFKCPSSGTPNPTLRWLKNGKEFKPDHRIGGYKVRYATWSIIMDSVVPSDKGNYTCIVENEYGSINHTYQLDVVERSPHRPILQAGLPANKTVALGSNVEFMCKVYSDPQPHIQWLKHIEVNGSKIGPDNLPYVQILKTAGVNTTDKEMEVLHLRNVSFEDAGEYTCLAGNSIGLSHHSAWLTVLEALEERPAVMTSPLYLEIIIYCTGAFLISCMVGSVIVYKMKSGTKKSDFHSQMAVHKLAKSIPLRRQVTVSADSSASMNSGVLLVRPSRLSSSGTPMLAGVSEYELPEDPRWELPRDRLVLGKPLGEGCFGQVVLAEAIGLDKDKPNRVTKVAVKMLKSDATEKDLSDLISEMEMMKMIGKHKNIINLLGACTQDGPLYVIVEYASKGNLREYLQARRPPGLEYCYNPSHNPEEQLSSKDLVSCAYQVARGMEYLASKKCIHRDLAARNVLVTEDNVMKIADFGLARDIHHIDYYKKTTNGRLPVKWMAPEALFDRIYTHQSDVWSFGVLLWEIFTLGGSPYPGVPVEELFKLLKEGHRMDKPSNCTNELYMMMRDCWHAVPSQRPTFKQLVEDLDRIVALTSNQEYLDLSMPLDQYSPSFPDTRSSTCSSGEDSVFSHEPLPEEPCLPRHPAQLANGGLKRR
Assay [13] deals with Angiopoietin-1 receptor (Homo sapiens) (UniProt Q02763). As to the kind of experiment: Inhibition of TEK (unknown origin) at 500 nM.
Assay [14] has as its target Protein kinase C alpha type (Homo sapiens) (UniProt P17252). As to the kind of experiment: Inhibition of PRKCA (unknown origin) at 500 nM.

Tyrosine-protein kinase Lyn (Homo sapiens), sequence (P07948 2-512 limits assumed): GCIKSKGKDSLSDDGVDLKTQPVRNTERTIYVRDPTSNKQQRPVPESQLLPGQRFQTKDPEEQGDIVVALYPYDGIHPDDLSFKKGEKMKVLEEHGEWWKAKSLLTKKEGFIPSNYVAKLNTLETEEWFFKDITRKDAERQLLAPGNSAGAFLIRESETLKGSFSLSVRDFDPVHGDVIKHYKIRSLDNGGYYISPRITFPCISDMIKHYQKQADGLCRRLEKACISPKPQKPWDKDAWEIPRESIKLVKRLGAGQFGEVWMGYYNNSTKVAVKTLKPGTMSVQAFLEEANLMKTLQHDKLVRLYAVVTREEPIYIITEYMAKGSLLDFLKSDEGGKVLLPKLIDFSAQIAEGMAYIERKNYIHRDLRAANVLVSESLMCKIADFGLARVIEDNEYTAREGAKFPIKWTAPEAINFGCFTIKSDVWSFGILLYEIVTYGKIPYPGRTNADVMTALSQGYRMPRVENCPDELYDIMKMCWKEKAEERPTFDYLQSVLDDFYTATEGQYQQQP
Serine/threonine-protein kinase PLK1 (Homo sapiens), sequence (P53350 whole entry): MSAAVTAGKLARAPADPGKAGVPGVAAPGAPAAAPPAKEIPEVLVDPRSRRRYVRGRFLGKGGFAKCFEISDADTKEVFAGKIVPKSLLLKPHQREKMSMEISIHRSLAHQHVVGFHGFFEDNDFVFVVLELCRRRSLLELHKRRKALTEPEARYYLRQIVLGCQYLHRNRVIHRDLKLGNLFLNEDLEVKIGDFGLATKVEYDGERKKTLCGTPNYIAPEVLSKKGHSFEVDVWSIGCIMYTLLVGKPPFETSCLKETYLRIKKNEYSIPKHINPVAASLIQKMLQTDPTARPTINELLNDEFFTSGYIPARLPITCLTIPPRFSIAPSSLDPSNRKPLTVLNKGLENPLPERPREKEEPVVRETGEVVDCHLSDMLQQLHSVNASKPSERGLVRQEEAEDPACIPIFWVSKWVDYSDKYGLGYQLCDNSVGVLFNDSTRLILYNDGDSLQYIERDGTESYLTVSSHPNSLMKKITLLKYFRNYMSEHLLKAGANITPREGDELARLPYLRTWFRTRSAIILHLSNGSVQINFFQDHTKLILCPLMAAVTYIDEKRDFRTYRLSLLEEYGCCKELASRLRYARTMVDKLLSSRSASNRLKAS
Tyrosine-protein kinase Fyn (Homo sapiens), sequence (P06241 2-537 limits assumed): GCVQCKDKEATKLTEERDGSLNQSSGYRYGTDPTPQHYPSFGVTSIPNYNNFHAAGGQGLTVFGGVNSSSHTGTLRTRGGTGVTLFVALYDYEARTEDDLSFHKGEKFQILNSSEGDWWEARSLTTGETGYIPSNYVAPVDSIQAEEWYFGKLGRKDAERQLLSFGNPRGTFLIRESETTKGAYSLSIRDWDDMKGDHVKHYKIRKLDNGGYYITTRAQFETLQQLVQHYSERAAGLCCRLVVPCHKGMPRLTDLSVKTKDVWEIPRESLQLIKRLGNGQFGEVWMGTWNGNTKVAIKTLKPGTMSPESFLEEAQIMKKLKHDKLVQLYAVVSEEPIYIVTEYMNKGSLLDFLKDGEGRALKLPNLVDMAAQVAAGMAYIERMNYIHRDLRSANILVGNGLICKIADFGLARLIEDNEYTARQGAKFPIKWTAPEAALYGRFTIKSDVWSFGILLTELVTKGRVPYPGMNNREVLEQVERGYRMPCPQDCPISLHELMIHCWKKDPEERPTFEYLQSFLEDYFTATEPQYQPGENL

As for `COc1ccc(C(=O)NCCN(C)C)cc1-c1cc2c(N[C@H](C)c3ccccc3)ncnc2s1`, the inhibition (as a rule, the relative decrease from the control value, in per cent) in [1] is 2%; in assay [2], 7%; in assay [3], -8%; in assay [4], 3%; in [5], 57%; in assay [6] it was -2%. Moreover, the inhibition is 8% in assay [7]; -4% in [8]; 10% in assay [9]; 3% in assay [10]; 15% in [11]; -4% in assay [12]. For the same molecule, the inhibition in [13] is -3%.
For `COc1cc(CO)ccc1-c1cc2c(Nc3ccc(F)c(Cl)c3)ncnc2s1`, the inhibition is 2% in [14]; 6% in assay [1]; 3% in assay [2]; 12% in assay [4]; 13% in assay [5]; -3% in assay [6]. Further, the inhibition in [7] is 5%; in assay [9] it was 3%; in [10], 8%; in assay [11] it was 15%; in [12] it was -7%; in assay [13] it was 11%.
As for `CN(C)CCNC(=O)c1ccc(-c2cc3c(N[C@H](CO)c4ccccc4)ncnc3s2)cc1`, the inhibition in [1] is 6%; in assay [2], 7%; in assay [3] it was -5%; in assay [4] it was 12%; in assay [5], 31%; in assay [6], 0%. The inhibition was 23% in assay [7]; 10% in assay [9]; 4% in assay [10]; 15% in assay [11]; -5% in assay [12]; 9% in assay [13].
With `C#Cc1cccc(Nc2ncnc3cc(OCCOC)c(OCCOC)cc23)c1` [ERLOTINIB], the inhibition is -9% in assay [1]; -7% in assay [3]; 68% in assay [5]; -8% in [8]; -4% in [12]; 5% in [13].
Consider `COc1cc(CO)ccc1-c1cc2c(Nc3ccccc3)ncnc2s1`, for which the inhibition in assay [14] was -1%; in assay [1], 2%; in assay [2], 11%; in [4], 15%; in assay [5], 24%; in assay [6], -3%. In addition, the inhibition in assay [7] was 6%; in assay [8], -5%; in assay [9], 10%; in assay [10], 9%; in assay [11], 28%; in assay [12], -4%. The inhibition in assay [13] stood at 8%.
In the case of `C[C@@H](Nc1ncnc2sc(-c3ccc(C(=O)NCCN(C)C)cc3)cc12)c1ccccc1`, the inhibition is 0% in [14]; 1% in assay [1]; 23% in assay [2]; -6% in assay [3]; 6% in [4]; 38% in assay [5]. Also, the inhibition in [6] is -6%; in assay [7], 19%; in [8], 4%; in [9] it was 6%; in [10], 13%; in assay [11], 3%. Moreover, the inhibition was -7% in assay [12] and 3% in assay [13].
In the case of `C[C@@H](Nc1ncnc2sc(-c3ccccc3C(N)=O)cc12)c1ccccc1`, the inhibition was 8% in assay [14]; -3% in assay [1]; 21% in assay [2]; -4% in [3]; 3% in [4]; 16% in assay [5]. The inhibition is -6% in assay [6]; 7% in assay [7]; 3% in assay [8]; -4% in assay [9]; 2% in assay [10]; 2% in assay [11]. The inhibition in [12] was -6%; in assay [13], 0%.
`COc1cc(C(N)=O)ccc1-c1cc2c(N[C@H](CO)c3ccccc3)ncnc2s1`: the inhibition in [14] is -4%; in assay [1], -8%; in assay [2], 25%; in assay [4], 10%; in assay [5], 47%; in [6], -9%. Also, the inhibition was 16% in assay [7]; 3% in assay [8]; 7% in [9]; 13% in assay [10]; 13% in assay [11]; -10% in [12]. For the same molecule, the inhibition in assay [13] amounted to 7%.
Turning to `COc1cc(CO)ccc1-c1cc2c(N[C@H](C)c3ccccc3)ncnc2s1`, the inhibition was determined as 1% in assay [1]; 1% in assay [2]; 1% in assay [3]; 4% in assay [4]; 61% in [5]; 1% in assay [7]. For the same molecule, the inhibition in assay [8] was determined as 1%; in [9], 12%; in [10], 3%; in assay [11], 7%; in assay [12], 1%; in assay [13] it was 1%.
On to `COc1cc(CO)ccc1-c1cc2c(N[C@H](CO)c3ccccc3)ncnc2s1`, for which the inhibition came to 1% in [1]; 20% in [2]; 15% in assay [3]; 18% in [4]; 40% in assay [5]; 12% in assay [7]. Besides, the inhibition is 13% in [8]; 12% in assay [9]; 1% in assay [10]; 20% in assay [11]; 4% in assay [12]; 13% in [13].
For the molecule `C#Cc1cccc(Nc2ncnc3sc(-c4ccc(CO)cc4OC)cc23)c1`, the inhibition in assay [14] was -7%; in assay [1] it was -8%; in assay [2], 16%; in assay [3] it was -3%; in assay [4] it was 3%; in [5], 13%. The inhibition in [6] was -8%; in [7], 0%; in assay [8], -6%; in [9] it was 8%; in assay [10], 7%; in assay [11] it was -4%. For the same molecule, the inhibition in assay [12] is -6%; in assay [13], -1%.
